Experimental data published in US9771341B2, “Piperazine carbamates and methods of making and using same” (Abide Therapeutics, Inc., priority 2015, dated 2017).

Columns and labels:
Type in all cases: biochemical
FAAH = target: T1, FAAH (Mus musculus, UniProt O08914); assay: In vitro competitive activity-based protein profiling (mouse), FAAH; conditions: for IC50: mouse brain membrane fraction or cell lysates, 30 min preincubation at 37° C, FP-Rh probe; for inhibition at 1 µM: mouse proteome, in vitro
T1 construct: Proteomes (mouse brain membrane fraction or cell lysates); from tissue; host or cells: mouse brain membrane fraction (or unspecified cell lysates)
T1 sequence (O08914 1-579): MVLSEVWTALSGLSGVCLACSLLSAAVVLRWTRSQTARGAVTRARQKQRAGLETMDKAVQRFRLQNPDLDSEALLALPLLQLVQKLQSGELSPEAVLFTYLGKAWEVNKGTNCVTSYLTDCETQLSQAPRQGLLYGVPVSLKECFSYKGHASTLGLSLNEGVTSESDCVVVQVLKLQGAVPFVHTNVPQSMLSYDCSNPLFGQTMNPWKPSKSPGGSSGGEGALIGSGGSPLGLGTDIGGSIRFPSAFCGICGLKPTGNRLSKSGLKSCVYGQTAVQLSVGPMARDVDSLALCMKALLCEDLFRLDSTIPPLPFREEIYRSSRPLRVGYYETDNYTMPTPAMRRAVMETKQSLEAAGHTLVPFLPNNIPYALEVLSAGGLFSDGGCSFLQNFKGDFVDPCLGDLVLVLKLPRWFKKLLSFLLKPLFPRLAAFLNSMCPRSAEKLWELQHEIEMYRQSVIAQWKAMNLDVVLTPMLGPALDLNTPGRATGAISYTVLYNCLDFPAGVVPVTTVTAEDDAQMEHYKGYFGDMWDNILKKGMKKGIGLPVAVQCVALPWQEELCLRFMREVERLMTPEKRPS
Experimental: (§1) In Vitro Competitive Activity-Based Protein Profiling (Mouse).
Proteomes (mouse brain membrane fraction or cell lysates) (50 μL, 1.0 mg/mL total protein concentration) were preincubated with varying concentrations of inhibitors at 37° C. After 30 min, FP-Rh (1.0 μL, 50 μM in DMSO) was added and the mixture was incubated for another 30 min at 37° C. Reactions were quenched with SDS loading buffer (50 μL-4×) and run on SDS-PAGE. Following gel imaging, serine hydrolase activity was determined by measuring fluorescent intensity of gel bands corresponding to MAGL, ABHD6 and FAAH using ImageJ 1.43u software.

MAGL = target: T2, MAGL (Mus musculus, UniProt O35678); assay: In vitro competitive activity-based protein profiling (mouse), MAGL; conditions: for IC50: mouse brain membrane fraction or cell lysates, 30 min preincubation at 37° C, FP-Rh probe; for inhibition at 1 µM: mouse proteome, in vitro, read-out: % Inhibition at 1 μM MAGL
T2 construct: Proteomes (mouse brain membrane fraction or cell lysates); from tissue; host or cells: mouse brain membrane fraction (or unspecified cell lysates)
T2 sequence (O35678 1-303): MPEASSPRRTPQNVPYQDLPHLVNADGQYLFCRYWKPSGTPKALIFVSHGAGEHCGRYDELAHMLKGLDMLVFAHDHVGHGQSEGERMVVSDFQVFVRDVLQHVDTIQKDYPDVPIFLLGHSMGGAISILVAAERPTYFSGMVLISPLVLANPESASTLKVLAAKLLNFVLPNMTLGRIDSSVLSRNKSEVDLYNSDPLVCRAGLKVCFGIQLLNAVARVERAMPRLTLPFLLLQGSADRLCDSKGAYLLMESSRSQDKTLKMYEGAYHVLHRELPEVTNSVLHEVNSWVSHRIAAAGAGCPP
Experimental: as §1
(§2) Proteomes (mouse brain membrane fraction or cell lysates) (50 μL, 1.0 mg/mL total protein concentration) were preincubated with varying concentrations of inhibitors at 37° C. After 30 min, FP-Rh (1.0 μL, 50 μM in DMSO) was added and the mixture was incubated for another 30 min at 37° C. Reactions were quenched with SDS loading buffer (50 μL-4×) and run on SDS-PAGE.

ABHD6 = target: T3, ABHD6 (Mus musculus, UniProt Q8R2Y0); assay: In vitro competitive activity-based protein profiling (mouse), ABHD6; conditions: for IC50: mouse brain membrane fraction or cell lysates, 30 min preincubation at 37° C, FP-Rh probe; for inhibition at 1 µM: mouse proteome, in vitro, read-out: % Inhibition at 1 μM ABHD6
T3 construct: Proteomes (mouse brain membrane fraction or cell lysates); from tissue; host or cells: mouse brain membrane fraction (or unspecified cell lysates)
T3 sequence (Q8R2Y0 1-336): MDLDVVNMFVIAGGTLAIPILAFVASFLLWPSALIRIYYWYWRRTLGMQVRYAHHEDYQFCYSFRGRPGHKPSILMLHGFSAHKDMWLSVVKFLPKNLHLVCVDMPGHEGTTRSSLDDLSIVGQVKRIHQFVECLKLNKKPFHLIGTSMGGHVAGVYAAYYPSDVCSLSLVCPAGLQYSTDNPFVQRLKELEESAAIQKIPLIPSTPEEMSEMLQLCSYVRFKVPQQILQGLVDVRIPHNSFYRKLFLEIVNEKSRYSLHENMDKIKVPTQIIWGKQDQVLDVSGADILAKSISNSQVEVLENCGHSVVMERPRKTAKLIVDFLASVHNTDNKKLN
Experimental: as §1, §2

IC50 (FAAH) | IC50 (MAGL) | IC50 (ABHD6) | inhibition at 1 µM (FAAH) | inhibition at 1 µM (MAGL) | inhibition at 1 µM (ABHD6) | SMILES
> 1000 nM | 100 to 1000 nM | 100 to 1000 nM | < 25% | > 75% | > 75% | CC(=O)N[C@@H]1CCN(Cc2cccc(CN3CCN(C(=O)OC(C(F)(F)F)C(F)(F)F)CC3)c2C)C1 [Example 17, 1,1,1,3,3,3-hexafluoropropan-2-yl (R)-4-(3-((3-acetamidopyrrolidin-1-yl)methyl)-2-methylbenzyl)piperazine-1-carboxylate]
> 1000 nM | 100 to 1000 nM | 100 to 1000 nM | < 25% | > 75% | > 75% | CC(=O)N[C@H]1CCN(Cc2cccc(CN3CCN(C(=O)OC(C(F)(F)F)C(F)(F)F)CC3)c2C)C1 [Example 18, 1,1,1,3,3,3-hexafluoropropan-2-yl (S)-4-(3-((3-acetamidopyrrolidin-1-yl)methyl)-2-methylbenzyl)piperazine-1-carboxylate]
> 1000 nM | 100 to 1000 nM | 100 to 1000 nM | < 25% | > 75% | > 75% | Cc1c(CN2CCN(C(=O)OC(C(F)(F)F)C(F)(F)F)CC2)cccc1CN1CCCC[C@H]1C [Example 19, 1,1,1,3,3,3-hexafluoropropan-2-yl (R)-4-(2-methyl-3-((2-methylpiperidin-1-yl)methyl)benzyl)piperazine-1-carboxylate]
> 1000 nM | 100 to 1000 nM | 100 to 1000 nM | < 25% | > 75% | > 75% | Cc1c(CN2CCN(C(=O)OC(C(F)(F)F)C(F)(F)F)CC2)cccc1CN1CCCC[C@@H]1C [Example 20, 1,1,1,3,3,3-hexafluoropropan-2-yl (S)-4-(2-methyl-3-((2-methylpiperidin-1-yl)methyl)benzyl)piperazine-1-carboxylate]
> 1000 nM | 100 to 1000 nM | 100 to 1000 nM | < 25% | > 75% | > 75% | Cc1c(CN2CCOCC2)cccc1CN1CCN(C(=O)OC(C(F)(F)F)C(F)(F)F)CC1 [Example 21, 1,1,1,3,3,3-hexafluoropropan-2-yl 4-(2-methyl-3-(morpholinomethyl)benzyl)piperazine-1-carboxylate]

Further lines, the compound ahead of its results:

SMILES | IC50 (FAAH) | IC50 (MAGL) | IC50 (ABHD6) | inhibition at 1 µM (FAAH) | inhibition at 1 µM (MAGL) | inhibition at 1 µM (ABHD6)
C#CCO[C@@H]1CCN(c2cc(C(F)(F)F)ccc2CN2CCN(C(=O)OC(C(F)(F)F)C(F)(F)F)CC2)C1 [Example 2, 1,1,1,3,3,3-hexafluoropropan-2-yl (R)-4-(2-(3-(prop-2-yn-1-yloxy)pyrrolidin-1-yl)-4-(trifluoromethyl)benzyl)piperazine-1-carboxylate] | > 1000 nM | < 100 nM | > 1000 nM |  |  | 
COC(=O)c1cc(CN2CCN(C(=O)OC(C(F)(F)F)C(F)(F)F)CC2)ccc1N1CCOCC1 [Example 5, 1,1,1,3,3,3-hexafluoropropan-2-yl 4-(3-(methoxycarbonyl)-4-morpholinobenzyl)piperazine-1-carboxylate] | > 1000 nM | < 100 nM | 100 to 1000 nM |  |  | 
COc1c(CN2CCN(C(C)=O)CC2)cccc1CN1CCN(C(=O)OC(C(F)(F)F)C(F)(F)F)CC1 [Example 7, 1,1,1,3,3,3-hexafluoropropan-2-yl 4-(3-((4-acetylpiperazin-1-yl)methyl)-2-methoxybenzyl)piperazine-1-carboxylate] | > 1000 nM | 100 to 1000 nM | 100 to 1000 nM | < 25% | > 75% | > 75%
Cc1c(CN2CCN(C(=O)OC(C(F)(F)F)C(F)(F)F)CC2)cccc1CN1CCN(S(C)(=O)=O)CC1 [Example 8, 1,1,1,3,3,3-hexafluoropropan-2-yl 4-(2-methyl-3-((4-(methylsulfonyl)piperazin-1-yl)methyl)benzyl)piperazine-1-carboxylate] | > 1000 nM | < 100 nM | < 100 nM | < 25% | > 75% | > 75%
COc1c(CN2CCC(F)CC2)cccc1CN1CCN(C(=O)OC(C(F)(F)F)C(F)(F)F)CC1 [Example 9, 1,1,1,3,3,3-hexafluoropropan-2-yl 4-(3-((4-fluoropiperidin-1-yl)methyl)-2-methoxybenzyl)piperazine-1-carboxylate] | > 1000 nM | < 100 nM | 100 to 1000 nM | < 25% | > 75% | > 75%
Cc1c(CN2CCC(NS(C)(=O)=O)CC2)cccc1CN1CCN(C(=O)OC(C(F)(F)F)C(F)(F)F)CC1 [Example 10, 1,1,1,3,3,3-hexafluoropropan-2-yl 4-(2-methyl-3-((4-(methylsulfonamido)piperidin-1-yl)methyl)benzyl)piperazine-1-carboxylate] | > 1000 nM | < 100 nM | 100 to 1000 nM | < 25% | > 75% | > 75%
CC(=O)NC1CCN(Cc2cccc(CN3CCN(C(=O)OC(C(F)(F)F)C(F)(F)F)CC3)c2C)CC1 [Example 11, 1,1,1,3,3,3-hexafluoropropan-2-yl 4-(3-((4-acetamidopiperidin-1-yl)methyl)-2-methylbenzyl)piperazine-1-carboxylate] | > 1000 nM | 100 to 1000 nM | 100 to 1000 nM | < 25% | > 75% | 25 to 75%
Cc1c(CN2CCN(C(=O)OC(C(F)(F)F)C(F)(F)F)CC2)cccc1CN1CCC(F)(F)CC1 [Example 12, 1,1,1,3,3,3-hexafluoropropan-2-yl 4-(3-((4,4-difluoropiperidin-1-yl)methyl)-2-methylbenzyl)piperazine-1-carboxylate] | > 1000 nM | < 100 nM | 100 to 1000 nM | < 25% | > 75% | > 75%
Cc1c(CN2CCCC2)cccc1CN1CCN(C(=O)OC(C(F)(F)F)C(F)(F)F)CC1 [Example 13, 1,1,1,3,3,3-hexafluoropropan-2-yl 4-(2-methyl-3-(pyrrolidin-1-ylmethyl)benzyl)piperazine-1-carboxylate] | > 1000 nM | 100 to 1000 nM | 100 to 1000 nM | < 25% | > 75% | > 75%
CC(=O)N1CCN(Cc2cccc(CN3CCN(C(=O)OC(C(F)(F)F)C(F)(F)F)CC3)c2C)CC1 [Example 14, 1,1,1,3,3,3-hexafluoropropan-2-yl 4-(3-((4-acetylpiperazin-1-yl)methyl)-2-methylbenzyl)piperazine-1-carboxylate] | > 1000 nM | < 100 nM | < 100 nM | < 25% | > 75% | > 75%
Cc1c(CN2CCC(F)CC2)cccc1CN1CCN(C(=O)OC(C(F)(F)F)C(F)(F)F)CC1 [Example 15, 1,1,1,3,3,3-hexafluoropropan-2-yl 4-(3-((4-fluoropiperidin-1-yl)methyl)-2-methylbenzyl)piperazine-1-carboxylate] | > 1000 nM | < 100 nM | 100 to 1000 nM | < 25% | > 75% | > 75%
